Converted amounts (≈) assume the structure as drawn. Read-outs that look alike come from different tables or passages of the source.
Tested on: U87MG Human Glioblastoma (ATCC # HTB-14)
Assay: 3H thymidine incorporation in U87MG human glioblastoma cells
Format: cell-based
Conditions: 48 hours incubation with compound, 3H thymidine for the last 5 hours
Method: U87MG Human Glioblastoma (ATCC # HTB-14)
3H Thymidine Incorporation Protocol
• Growth Medium: BRL Minimum Essential Medium with Earle Salts (500 ml) + 5mLBRL MEM Non-Essential Amino Acids (10mM) +5 mLBRL Penicillin-Streptomycin (10000u/ml,10000ug/ml) +5mLBRL Na Pyruvate Solution (100mM) +5mLBRL L-Glutamine 200mM +50mLBRL Fetal Bovine Serum (Qualified) • Assay: • 1. Cells were trypsinized and plated at a concentration of 10^4 cells/well in a final volume of 200 µl growth medium in 96-well flat bottom plates and allowed to adhere for 24 hours at 37°C. • 2. The media was removed by aspiration with care to not disturb the cell monolayer. 200 µl of fresh growth media was added per well, allowing enough wells for samples to be run in triplicate. Compounds were added in 10 µl PBS solutions and incubated for another 48 hours at 37°C. • 3. During the last 5 hours of incubation, plates were labeled with 1µCi 3H thymidine per well. (NEN thymidine, catalog # NET-027, 6.7 Ci/mmole). The 1µCi was added in 10 µl of PBS (on the day of harvest.). The plates were returned to the incubator for the last 5 hours. • 4. The radioactive media was removed by aspiration, with care not to disturb the cell monolayer. 50 µl of BRL 10X Trypsin was added to each well, followed by incubation at 37°C for 10 minutes or until the monolayer was loosened from the well bottom. […] Mats were counted in a Wallac Betaplate counter.

IC50 (Homo sapiens, U-87 MG, read-out: IC50) [ng/mL]	IC50 [ng/mL]	SMILES
0.5 (≈ 0.547 nM)	–	CO[C@H]1C[C@@H]2CC[C@@H](C)[C@@](O)(O2)C(=O)C(=O)N2CCCC[C@H]2C(=O)O[C@H]([C@H](C)C[C@@H]2CC[C@@H](O)[C@H](OC)C2)CC(=O)[C@H](C)/C=C(\C)[C@@H](O)[C@@H](OC)C(=O)[C@H](C)C[C@H](C)/C=C/C=C/C=C/1C [Rapamycin]
–	2.0 (≈ 2.09 nM)	CO[C@H]1C[C@@H]2CC[C@@H](C)[C@@](O)(O2)C(=O)C(=O)N2CCCC[C@H]2C(=O)O[C@H]([C@H](C)C[C@@H]2CC[C@@H](OCCO)[C@H](OC)C2)CC(=O)[C@H](C)/C=C(\C)[C@@H](O)[C@@H](OC)C(=O)[C@H](C)C[C@H](C)/C=C/C=C/C=C/1C [SDZ-RAD, 40-O-(2-hydroxy)ethyl-rapamycin]
